Assays:
[1] = Amount of salicylic acid in rat plasma and brain, 0.3 mmol/kg
Description: 20 male rats were divided into 4 groups (n=5). 0.3 mmol/kg of diethylaminoethyl acetylsalicylate.HCl salt was administrated into rats intramuscularly (20% in 70% ethanol) or transdermally (10% in 70% ethanol, on the shaved back of rat, 10 cm^2) and 0.3 mmol/kg of aspirin was administrated into rats intramuscularly (20% in 70% ethanol) or transdermally (10% in 70% ethanol, on the shaved back of rat, 10 cm^2). […] The plasma or brain tissue (the whole brain was washed with pH 7.4 buffer for 3 times) was homogenized immediately in 3-5 ml of methanol, using a tissue tearor at 30,000 rpm (about 2 min.).

[2] = tested on: rats given sterilized E. coli suspension as a pyrogen; test: Antipyretic activity of aspirin and its HPC (Study B); assay type: in vivo; details: for body temperature: in °C (unit assumed)
Method: […] Group A was the control group. The body temperature of rats was taken at 90 min. intervals before and after the administration of the test compounds.

[3] = tested on: autologous blood clots injected in femoral vein (pulmonary thrombus); test: Anti-thrombosis activity, autologous blood clots in rabbits; assay type: in vivo, Chinese White rabbits; details: 50 mg/kg topically to the back twice per day, 5 days
Method: Eighteen Chinese White rabbits weighing between 3.0 and 3.5 kg (aged 6-7 months) were selected and divided into three groups (control, P-1 and […] groups, n=6). One hour before the experiment, thrombi were made by aspirating venous blood (1 ml) into a sterilized bottle to clot. To avoid fragmentation and slow lysis, the autologous blood clots were stabilized in temperature-controlled (70° C.) distilled water for 10 min. After anesthesia, the femoral veins were exposed and distally isolated, and autologous blood clots (0.05 g/kg) were injected through an indwelling catheter (20GA), which had been placed in the femoral vein isolated earlier. 50 mg/kg of diethylaminoethyl acetylsalicylate.HCl salt (P-1, 10% in 25% ethanol) and diethylaminoethyl acetylsalicylsalicylate.HCl salt (P-59, 10% in 25% ethanol) were topically applied to the back of the rabbits twice per day. After 5 days, rabbits were euthanized with an excessive intravenous injection of sodium amobarbital (60 mg/kg). The lungs and hearts were isolated to observe whether thrombi were present in the pulmonary arteries. The lungs were immersed in 10% formalin for 24 h. Consecutive transverse sections along the obstructed pulmonary arteries were paraffin-embedded and stained with hematoxylin-eosine. […]

[4] = tested on: carotid artery thrombosis; test: Thrombosis/stroke induced by electrical stimulation of carotid artery; assay type: in vivo, rats (Spragu Dawley)
Method: Thrombosis was induced by electrical stimulation (1 mA for 3 minutes) of the carotid artery in rats by using a thrombosis formation instrument (YLS-14A, Shandong Academy of Medical Sciences, Shandong, China). […] In group B, 100 mg/kg of diethylaminoethyl acetylsalicylate.HCl salt (10% in water) was applied to the shaved back skin of the rats (˜9 cm^2, fur was cut off) 2 hour before the operation and 1 hour after the operation, then 50 mg/kg of the HPC was applied to the back of the rats twice per day. In group C, 50 mg/kg of diethylaminoethyl acetylsalicylate.HCl was applied to the back of the rats twice per day starting from 24 hours after the operation. The recovery of motor functions of rats was evaluated every day.

[5] = group B: 100 mg/kg 2 hour before and 1 hour after operation, then 50 mg/kg twice per day
[6] = group C: 50 mg/kg twice per day starting 24 hours after the operation

## CCN(CC)CCOC(=O)c1ccccc1OC(C)=O.Cl [P-1, diethylaminoethyl acetylsalicylate.HCl salt]
[1]; intramuscularly
  salicylic acid in Plasma (1 hr): 378 ± 34 nmol/mL
  salicylic acid in Plasma (8 hr): 123 ± 25 nmol/mL
  salicylic acid in Plasma (18 hr): 0.9 ± 0.2 nmol/mL
[1]; transdermally
  salicylic acid in Plasma (1 hr): 158 ± 21 nmol/mL
  salicylic acid in Plasma (8 hr): 103 ± 28 nmol/mL
  salicylic acid in Plasma (18 hr): 1.1 ± 0.2 nmol/mL
[2]; 20 mg/kg, oral administration
  antipyretic activity: almost the same antipyretic activity as 100 mg/kg of aspirin
[2]; 20 mg/kg, orally, t = 0 min.
  body temperature: 37.6 ± 0.3
[2]; 20 mg/kg, orally, t = 90 min.
  body temperature: 37.1 ± 0.4
[2]; 20 mg/kg, orally, t = 180 min.
  body temperature: 36.8 ± 0.2
[2]; 20 mg/kg, orally, t = 270 min.
  body temperature: 36.5 ± 0.3
[2]; 50 mg/kg, orally, t = 0 min.
  body temperature: 37.6 ± 0.3
[2]; 50 mg/kg, orally, t = 90 min.
  body temperature: 36.7 ± 0.3
[2]; 50 mg/kg, orally, t = 180 min.
  body temperature: 36.5 ± 0.2
[2]; 50 mg/kg, orally, t = 270 min.
  body temperature: 36.4 ± 0.3
[2]; 100 mg/kg, orally, t = 0 min.
  body temperature: 37.6 ± 0.4
[2]; 100 mg/kg, orally, t = 90 min.
  body temperature: 36.6 ± 0.4
[2]; 100 mg/kg, orally, t = 180 min.
  body temperature: 36.5 ± 0.3
[2]; 100 mg/kg, orally, t = 270 min.
  body temperature: 36.4 ± 0.3
[2]; groups H/I, 50 mg/kg, transdermally, t = 0 min.
  body temperature: 37.5 ± 0.3
[2]; groups H/I, 50 mg/kg, transdermally, t = 90 min.
  body temperature: 36.5 ± 0.2
[2]; groups H/I, 50 mg/kg, transdermally, t = 180 min.
  body temperature: 36.3 ± 0.3
[2]; groups H/I, 50 mg/kg, transdermally, t = 270 min.
  body temperature: 36.4 ± 0.2
[2]; groups J/K, 20 mg/kg, transdermally, t = 0 min.
  body temperature: 37.5 ± 0.4
[2]; groups J/K, 20 mg/kg, transdermally, t = 90 min.
  body temperature: 36.7 ± 0.2
[2]; groups J/K, 20 mg/kg, transdermally, t = 180 min.
  body temperature: 36.4 ± 0.2
[2]; groups J/K, 20 mg/kg, transdermally, t = 270 min.
  body temperature: 36.4 ± 0.2
[2]; groups L/M, 20 mg/kg, transdermally, t = 0 min.
  body temperature: 37.6 ± 0.2
[2]; groups L/M, 20 mg/kg, transdermally, t = 90 min.
  body temperature: 36.5 ± 0.4
[2]; groups L/M, 20 mg/kg, transdermally, t = 180 min.
  body temperature: 36.4 ± 0.3
[2]; groups L/M, 20 mg/kg, transdermally, t = 270 min.
  body temperature: 36.5 ± 0.2
[3]
  lung tissue and vascular walls (histology): both lung tissue and vascular walls were normal
[4]; [5]
  Stroke-free rats (2 hours): 8/10
  Stroke-free rats (1 day): 9/10
  Stroke-free rats (7 days): 10/10
[4]; [6]
  Stroke-free rats (3 hrs): 0/10
  Stroke-free rats (2 day): 4/10
  Stroke-free rats (7 day): 9/10
  Stroke-free rats (14 days): 10/10
  Weight Loss (3 days): −13 +/− 7%
  Weight Loss (7 days): −7 +/− 4%
  Weight Loss (14 days): −4 +/− 2%
[4]; post-stroke treatment
  bleeding problem: without bleeding problem
